{"source": "patent US8883844B2", "about": "“Nitric oxide releasing amino acid ester for treatment of pulmonary hypertension and other respiratory conditions” (Nitrogenix Inc., priority 2010, dated 2014)", "origin": "cited, not measured here", "key": {"[1]": {"details": "oral; 3, 6, 9 and 12 months"}, "[2]": {"details": "open pilot study"}}, "note": "Like-named read-outs stand apart in the source and are kept apart here.", "data": [{"compound": "CC#CCC(C)[C@H](O)/C=C/[C@@H]1[C@H]2c3cccc(CCCC(=O)O)c3O[C@H]2C[C@H]1O", "note": "(mixture of isomers) [Beraprost, beraprost]", "values": [{"measurement": "benefit in PAH", "setting": "[1]", "result": "benefit in a study in PAH at 3 and 6 months but not at 9 or 12 months"}]}, {"compound": "COc1ccccc1Oc1c(NS(=O)(=O)c2ccc(C(C)(C)C)cc2)nc(-c2ncccn2)nc1OCCO", "note": "[bosentan]", "values": [{"measurement": "liver toxicity", "setting": "higher dose", "result": "liver toxicity occurred"}, {"measurement": "six minute walk test", "setting": "two placebo controlled trials, whole group, improvement greater at higher doses", "result": "improved"}]}, {"compound": "Cc1cc2c(cc1CC(=O)c1sccc1S(=O)(=O)Nc1onc(C)c1Cl)OCO2", "note": "[sitaxsentan]", "values": [{"measurement": "decrease in pulmonary vascular resistance", "setting": "[2]", "result": 30, "unit": "%"}, {"measurement": "six minute walk test", "setting": "[2]", "result": "improvement"}]}]}
